Assays:
Type in all cases: cell-based
[1] = system: J399EM (HCV genotype 2a) virus; assay: Antiviral activity assay in the cell-culture-derived infectious HCV (HCVcc) system
Procedure: The compound according to the above example 1 was used in this experiment. The compound was formulated into a 10 mM mother liquid with DMSO, diluted to 500 nM by DMEM complete culture medium containing 0.5% of DMSO, followed by 4-fold dilution successively, and six concentrations were obtained. The positive control was diluted to 10 μM by DMEM complete culture medium containing 0.5% of DMSO, followed by 4-fold successively, and six concentrations were obtained.
(§1) Huh 7.5.1 cells, provided by Shanghai Institute of Materia Medica, Chinese Academy of Sciences.
J399EM (HCV genotype 2a) virus, i.e. a full length HCV mutant strain transfected with EGFP (enhanced green fluorescent protein) was used, which had the same infection capacity as the wild type JFH-1. The NS5A-EGFP fusion protein fluorescence was observed directly in infected cells by inserting EGFP coding sequence in the NS5A region. J399EM was provided by Shanghai Institute of Materia Medica, Chinese Academy of Sciences.
(§2) • 1) Huh 7.5.1 cells preparation: collecting the Huh7.5.1 cells in logarithmic phase, resuspending in DMEM complete culture medium, seeding into 96-well plates (7×10^3 cells/well), and incubating in a 37° C., 5% CO2 incubator for 24 h; • 2) virus infection: resuspending J399EM viruses in DMEM complete culture medium, adding the virus supernatant (MOI≈0.1) to the above 96-well plates, and washing with PBS after 8 hours of infection; • 3) drug treatment: adding various concentrations of the compounds to the Huh7.5.1 cells infected by J399EM viruses, with each concentration in duplicate; setting the control group with zero percent effect (ZPE) and the control group with hundred percent effect (HPE); replacing the compound with the DMEM complete culture medium containing 0.5% DMSO in ZPE group, and using the cells not infected with viruses in HPE group. • 4) cells incubation: incubating the 96-well plates in a 37° C., 5% CO2 incubator for 72 hr; • 5) anti-HCV activity detection: reading the relative fluorescence units (RFU) of each well by EnVision® Multi label Plate readers after incubation, and calculating the anti-HCV activity of the compounds using the obtained data according to the following formula: Inhibition %=(RFUZPE−RFUCPD)/(RFUZPE−RFUHPE)×100 • wherein RFUZPE represents the relative fluorescence units of the control group with zero percent effect and RFUCPD represents the relative fluorescence units of the corresponding compound group, and RFUHPE represents the relative fluorescence units of the control group with hundred percent effect. • 6) Cell viability detection: adding MTT solution to each well, incubating in a 37° C., 5% CO2 incubator for 4 hr, followed by addition of MTT dissolving solution, reading optical density (OD) of each well at 570 nm by the Multi label Plate readers after 6 hr, calculating the cytotoxicity of the compounds using the obtained data according to the following formula: Viability %=ODCPD/ODZPE×100 • wherein ODZPE represents the optical density of the control group with zero percent effect, and ODCPD represents the optical density of the corresponding compound; • 7) Data processing: processing the Inhibition %, Viability % by GraphPad Prism Software respectively, and obtaining the half maximal effective concentration (EC50) values and half maximal cytotoxic concentration (CC50) values of the compounds against the HVCcc GT2a viruses.

[2] = system: HCV 1b replicon; assay: Antiviral activity assay in HCV replicon system (Huh7 1b cells, luciferase reporter); settings: Hepatitis C virus, Huh-7; Huh7 1b cells with HCV 1b replicon, Bright-Glo luciferase, 72 h; read-out: EC50
From the text: The cell line Huh7 1b, which was provided by WuXi AppTec Co., Ltd. in Shanghai, contained an HCV 1b replicon with a stable Luciferase (Luc) reporter. It was constructed by cloning HCV nonstructural protein gene, neo (G418 resistance) and luciferase reporter gene into the pBR vector through gene recombination technology. Then the vector carrying the HCV replicon was transfected into Huh7 cells, and the transfected Huh7 cells were screened by G418 resistance. The HCV replicon was stably replicated, and the related protein and luciferase were stably expressed in Huh7 cells. The cells model was used for in-vitro screen of anti-HCV compounds. The anti-HCV activity of the compounds was measured by detecting the level of luciferase expression. See Lohmann V, et al. 1999. Replication of subgenomic hepatitis C virus RNAs in a hepatoma cell line. Science. 285(5424):110-113.
The control drug used in this experimental example was the compound of Example 25 in WO 2008/121634 (PCT/US2008/058183), i.e. (S)-2-{[(2R,3R,4R,5R)-5-(2,4-dioxo-3,4-dihydro-2H-pyrimidin-1-yl)-4-fluoro-3-hydr oxy-4-methyl-tetrahydro-furan-2-ylmethoxy]-phenoxy-phosphorylamino}-propanoic acid isopropyl ester. This compound was prepared according to the method described in J. Org. chem, 2011, 76, 8311-8319, and identified by H-NMR and mass spectrometry.
• 2.1 compound preparation: adding each of the compounds listed in Table 2 to 96-well plates using a POD™ 810 Automation Platform (LabCyte Corporation, USA), with 10 μM of each of the compounds as a starting concentration and in duplicate; serially diluting each of the compounds in 3-fold fashion and formulating 10 concentrations, with the final concentration of DMSO being 0.5%; • 2.2 cells preparation: seeding the Huh71b cells into 96-well plates respectively with a volume of 125 μl and 8×10^3 cells/well, and incubating in a 37° C., 5% CO2 incubator for 72 h; • 2.3 detection of cell activity: adding 30 μl per cell of the CellTiter-Fluor™ Reagent, incubating in a 37° C., 5% CO2 incubator for 1 h, measuring the fluorescence signal values with a fluorometer, and using the obtained data for calculation of cytotoxicities of the compounds; • 2.4 Bright-Glo detection: adding 100 μl per well of the Bright-Glo™ Luciferase Substrate, using a chemiluminescence detection system EnVision™ (PerkinElmer, USA) to detect the fluorescence signal values within 5 minutes, and using the obtained data for calculation of potencies of the compounds. • 2.5 data processing: converting the obtained data to a percentage of cell viability (Viability %) using the following formula:
[formula] • CPD: fluorescence signal value of the well added with the compound • ZPE (Zero percent effect): fluorescence signal value of the control well with zero percent effect. • Processing the raw data to calculate a percentage of inhibition (Inhibition %) using the following formula:
[formula] • CPD: fluorescence signal value of the well added with the compound; • HPE (Hundred percent effect): fluorescence signal value of the control well with hundred percent effect; • ZPE (Zero percent effect): fluorescence signal value of the control well with zero percent effect.
The inhibition percentage was processed by the GraphPad Prism software to obtain the corresponding curves and EC50 values.

[3] = system: Huh 7.5.1 cells; assay: Cell viability detection (MTT) in the HCVcc system; settings: in vitro HCVcc system
Procedure: as §1, §2

[4] = Cell viability detection (MTT) in the HCVcc system; settings: human, Huh 7.5.1 cells infected with J399EM virus (HCVcc); Huh 7.5.1 cells, MTT, 72 hr
Procedure: as §1, §2

SMILES | half maximal effective concentration (EC50) against the HCVcc GT2a viruses, in words ([1]; in vitro HCVcc system) | EC50 [2] | half maximal cytotoxic concentration (CC50), in words [3] | EC50 ([1]; Hepatitis C virus, Huh-7.5.1, 72 h) | CC50 at 72 h [4]
CC(C)OC(=O)[C@H](C)NP(=O)(OC[C@H]1O[C@@H](n2ccc(=O)[nH]c2=O)[C@](C)(F)[C@@H]1O)Oc1ccc(-c2ccccc2)c(F)c1 (stereo partly drawn) [Example 28, (2S)-2-(((2-fluoro-[1,1′-biphenyl]-4-yloxy)(((2R,3R,4R,5R)-5-(2,4-dioxo-3,4-dihydropyrimidin-1(2H)-yl)-4-fluoro-3-hydroxy-4-methyltetrahydrofuran-2-yl)methoxy)phosphoryl)amino)propanoic Acid Isopropyl Ester] | low | 123 nM | high |  | 
CC(C)OC(=O)[C@H](C)NP(=O)(OC[C@H]1O[C@@H](n2ccc(=O)[nH]c2=O)[C@](C)(F)[C@@H]1O)Oc1ccccc1 (stereo partly drawn) [Positive control, (S)-2-{[(2R,3R,4R,5R)-5-(2,4-dioxo-3,4-dihydro-2H-pyrimidin-1-yl)-4-fluoro-3-hydroxy-4-methyl-tetrahydro-furan-2-ylmethoxy]-phenoxy-phosphorylamino}-propanoic acid isopropyl ester, reference compound] |  | 117 nM |  | 173 nM | > 10000 nM

— patent US9963480B2, “Nucleoside phosphoramidate compound and use thereof” (priority 2013, dated 2018)
